The text below walks through data of article PMC6901909, “Synergy Pattern of Short Cationic Antimicrobial Peptides Against Multidrug-Resistant Pseudomonas aeruginosa” (Frontiers in Microbiology, 2019).

Holding throughout (experiment): microbe, parasite or virus in culture
Common to all, as to type: cell-based, Pseudomonas aeruginosa

Experiment [1] relates to MDR P. aeruginosa PA 919. The settings on record: MDR PA 919, 18 h. The protocol: (§1) We selected six different P. aeruginosa isolates that were described as MDR and had been isolated from clinical and municipal waste water ([Schwartz et al., 2006]). The minimal inhibitory concentration (MIC) was determined in a microdilution assay using Mueller-Hinton (MH) broth following a previously published protocol ([Wiegand et al., 2008]). Briefly, a twofold serial dilution of the antibiotics and peptides were prepared and added to a bacteria solution, resulting in 2–5 10^5 CFU/ml. The microtiter plates (polypropylene, Corning) were incubated for 18 h at 37°C and MICs were taken visually.

Experiment [2] relates to MDR P. aeruginosa PA253. The settings on record: MDR PA253, 18 h. On the procedure: as §1
In experiment [3] the test system is P. aeruginosa PA01-wt. The settings on record: -wt, 18 h. On the procedure:
as §1

For experiment [4], the system named is MDR P. aeruginosa PA 910. Particulars: MDR PA 910, 18 h. The protocol: as §1

Structures are written as SMILES. In brackets after ≈: the same amount, converted by molar mass. Peptide text beside a SMILES is read from it.

Consider `CC[C@H](C)[C@H](NC(=O)[C@H](CCCNC(=N)N)NC(=O)[C@H](CC(C)C)NC(=O)[C@H](CCCNC(=N)N)NC(=O)[C@@H](N)C(C)C)C(=O)N[C@@H](CCCNC(=N)N)C(=O)N[C@H](C(=O)N[C@@H](C)C(=O)N[C@H](C(=O)N[C@H](C(=O)N[C@@H](CCCNC(=N)N)C(=O)N[C@@H](C)C(N)=O)[C@@H](C)CC)C(C)C)C(C)C` [Bac034] (H-VRLRIRVAVIRA-NH2), for which the “MIC against MDR isolates of PA, PA919” value in experiment [1] amounted to 32 µM. Also, the “MIC against MDR isolates of PA, PA253” value in experiment [2] was 64 µM. Further, the “MIC against PA01 wt” value in experiment [3] is 32 µM (≈ 45.5 µg/mL).

Turning to `CC[C@H](C)[C@H](N)C(=O)N[C@@H](CC(C)C)C(=O)N[C@@H](CCCCN)C(=O)N[C@@H](Cc1c[nH]c2ccccc12)C(=O)N[C@@H](CCCCN)C(=O)N[C@@H](CCCCN)C(=O)NCC(=O)N[C@@H](Cc1c[nH]c2ccccc12)C(=O)N[C@@H](Cc1c[nH]c2ccccc12)C(=O)N[C@@H](CCCCN)C(=O)N[C@@H](Cc1c[nH]c2ccccc12)C(=O)N[C@@H](Cc1ccccc1)C(=O)N[C@@H](CCCNC(=N)N)C(N)=O` [Indopt 8] (H-ILKWKKGWWKWFR-NH2), the “MIC against MDR isolates of PA, PA919” value in experiment [1] is 16 µM. Also, the “MIC against MDR isolates of PA, PA253” value in experiment [2] was 8 µM. The “MIC against PA01 wt” value in experiment [3] is 4 µM (≈ 7.45 µg/mL).

On to `CC[C@H](C)[C@H](N)C(=O)N[C@@H](CC(C)C)C(=O)N[C@@H](CCCCN)C(=O)N[C@@H](Cc1c[nH]c2ccccc12)C(=O)N[C@@H](CCCCN)C(=O)N[C@@H](CCCNC(=N)N)C(=O)N[C@@H](CCCCN)C(=O)N[C@@H](Cc1c[nH]c2ccccc12)C(=O)N[C@@H](Cc1c[nH]c2ccccc12)C(=O)N[C@@H](CCCCN)C(=O)N[C@@H](Cc1c[nH]c2ccccc12)C(=O)N[C@@H](CCCNC(=N)N)C(=O)N[C@@H](CCCNC(=N)N)C(N)=O` [Indopt 9] (H-ILKWKRKWWKWRR-NH2), for which the “MIC against MDR isolates of PA, PA919” value in experiment [1] is 16 µM. Also, the “MIC against MDR isolates of PA, PA253” value in experiment [2] amounted to 4 µM. Besides, the “MIC against PA01 wt” value in experiment [3] is given as 1 (1) μM.

For `CC[C@H](C)[C@H](N)C(=O)N[C@@H](CC(C)C)C(=O)N[C@@H](CCCCN)C(=O)N[C@@H](Cc1c[nH]c2ccccc12)C(=O)N[C@@H](CCCCN)C(=O)N[C@H](C(=O)N[C@@H](CCCCN)C(=O)N[C@@H](Cc1c[nH]c2ccccc12)C(=O)N[C@@H](Cc1c[nH]c2ccccc12)C(=O)N[C@@H](CCCCN)C(=O)N[C@@H](Cc1c[nH]c2ccccc12)C(=O)N[C@@H](Cc1ccccc1)C(=O)N[C@@H](CCCNC(=N)N)C(N)=O)[C@@H](C)O` [Indopt 11] (H-ILKWKTKWWKWFR-NH2), in experiment [1], the “MIC against MDR isolates of PA, PA919” value came out at 16 µM. The “MIC against MDR isolates of PA, PA253” value in experiment [2] stood at 4 µM. Besides, the “MIC against PA01 wt” value in experiment [3] came out at 2 µM (≈ 3.81 µg/mL).

On to `CC[C@H](C)[C@H](NC(=O)[C@H](CCCCN)NC(=O)[C@H](CCCNC(=N)N)NC(=O)[C@H](Cc1c[nH]c2ccccc12)NC(=O)[C@H](Cc1c[nH]c2ccccc12)NC(=O)[C@@H](N)CCCNC(=N)N)C(=O)N[C@@H](Cc1c[nH]c2ccccc12)C(=O)N[C@@H](CCCCN)C(=O)N[C@@H](Cc1c[nH]c2ccccc12)C(N)=O` [LOP1] (H-RWWRKIWKW-NH2), for which, in experiment [1], the “MIC against MDR isolates of PA, PA919” value lay within 2 to 4 µM. The “MIC against MDR isolates of PA, PA253” value in experiment [2] is 8 µM. For the same molecule, the “MIC against PA01 wt” value in experiment [3] came to 2 µM (≈ 2.89 µg/mL).

For `CC[C@H](C)[C@H](NC(=O)[C@H](CCCNC(=N)N)NC(=O)[C@H](C)NC(=O)CNC(=O)[C@@H](N)CCCNC(=N)N)C(=O)N[C@H](C(=O)N[C@H](C(=O)N[C@H](C(=O)N[C@@H](CCCNC(=N)N)C(=O)N[C@H](C(=O)N[C@@H](C)C(=O)N[C@@H](CCCNC(=N)N)C(N)=O)C(C)C)[C@@H](C)CC)C(C)C)C(C)C` [Peptide G2] (H-RGARIVVIRVAR-NH2), the “MIC against MDR isolates of PA, PA919” value in experiment [1] is 16 µM. Moreover, the “MIC against MDR isolates of PA, PA253” value in experiment [2] turned out to be 32 µM. For the same molecule, the “MIC against PA01 wt” value in experiment [3] was determined as 32 µM (≈ 43.7 µg/mL).

With `CC[C@H](C)[C@H](NC(=O)[C@H](CCCNC(=N)N)NC(=O)[C@H](C)NC(=O)[C@H](CCCNC(=N)N)NC(=O)[C@@H](N)CCCNC(=N)N)C(=O)N[C@H](C(=O)N[C@H](C(=O)N[C@H](C(=O)N[C@@H](CCCNC(=N)N)C(=O)N[C@H](C(=O)N[C@@H](C)C(=O)N[C@@H](CCCNC(=N)N)C(N)=O)C(C)C)[C@@H](C)CC)C(C)C)C(C)C` [Peptide R2] (H-RRARIVVIRVAR-NH2), the “MIC against MDR isolates of PA, PA919” value in experiment [1] is 16 µM. Further, the “MIC against MDR isolates of PA, PA253” value in experiment [2] turned out to be 32 µM. In addition, in experiment [3], the “MIC against PA01 wt” value is 32 µM (≈ 46.8 µg/mL).

In the case of `CC[C@H](C)[C@H](NC(=O)[C@H](CCCNC(=N)N)NC(=O)[C@H](Cc1c[nH]c2ccccc12)NC(=O)[C@H](CC(C)C)NC(=O)[C@@H](N)CCCNC(=N)N)C(=O)N[C@H](C(=O)N[C@H](C(=O)N[C@H](C(=O)N[C@@H](CCCNC(=N)N)C(=O)N[C@H](C(=O)N[C@@H](C)C(=O)N[C@@H](CCCNC(=N)N)C(N)=O)C(C)C)[C@@H](C)CC)C(C)C)C(C)C` [Peptide W3] (H-RLWRIVVIRVAR-NH2), in experiment [4], the “MIC against PA910 in μM (peptides, Table 4)” value stood at 32 µM (≈ 49.2 µg/mL).

Take `CC[C@H](C)[C@H](NC(=O)[C@H](CCCNC(=N)N)NC(=O)[C@H](Cc1c[nH]c2ccccc12)NC(=O)[C@H](CCCNC(=N)N)NC(=O)[C@@H](N)C(C)C)C(=O)N[C@@H](CCCNC(=N)N)C(=O)N[C@H](C(=O)N[C@@H](C)C(=O)N[C@H](C(=O)N[C@H](C(=O)N[C@@H](CCCNC(=N)N)C(=O)N[C@@H](C)C(N)=O)[C@@H](C)CC)C(C)C)C(C)C` [S-W3] (H-VRWRIRVAVIRA-NH2): in experiment [4], the “MIC against PA910 in μM (peptides, Table 4)” value stood at 16 µM (≈ 23.9 µg/mL).

Turning to `CC[C@H](C)[C@H](NC(=O)[C@H](CCCNC(=N)N)NC(=O)[C@H](Cc1c[nH]c2ccccc12)NC(=O)[C@H](CCCNC(=N)N)NC(=O)[C@@H](N)CCCNC(=N)N)C(=O)N[C@H](C(=O)N[C@H](C(=O)N[C@H](C(=O)N[C@@H](CCCNC(=N)N)C(=O)N[C@H](C(=O)N[C@@H](CCCNC(=N)N)C(=O)N[C@@H](CCCNC(=N)N)C(N)=O)C(C)C)[C@@H](C)CC)C(C)C)C(C)C` [Sub 3] (H-RRWRIVVIRVRR-NH2), the “MIC against MDR isolates of PA, PA919” value in experiment [1] came to 16 µM. In addition, the “MIC against MDR isolates of PA, PA253” value in experiment [2] worked out at 8 µM. The “MIC against PA01 wt” value in experiment [3] was found to be 8 µM (≈ 13.3 µg/mL).
